US12552790B2, “Positive modulators of the muscarinic acetylcholine receptor M4” (Vanderbilt University, priority 2023, dated 2026)
pEC50: −log10 of the molar value.

Molecular target: T1, Human M4 (Homo sapiens, UniProt P08173)
T1 construct: expressed in transfected cells
T1 sequence (P08173 1-479): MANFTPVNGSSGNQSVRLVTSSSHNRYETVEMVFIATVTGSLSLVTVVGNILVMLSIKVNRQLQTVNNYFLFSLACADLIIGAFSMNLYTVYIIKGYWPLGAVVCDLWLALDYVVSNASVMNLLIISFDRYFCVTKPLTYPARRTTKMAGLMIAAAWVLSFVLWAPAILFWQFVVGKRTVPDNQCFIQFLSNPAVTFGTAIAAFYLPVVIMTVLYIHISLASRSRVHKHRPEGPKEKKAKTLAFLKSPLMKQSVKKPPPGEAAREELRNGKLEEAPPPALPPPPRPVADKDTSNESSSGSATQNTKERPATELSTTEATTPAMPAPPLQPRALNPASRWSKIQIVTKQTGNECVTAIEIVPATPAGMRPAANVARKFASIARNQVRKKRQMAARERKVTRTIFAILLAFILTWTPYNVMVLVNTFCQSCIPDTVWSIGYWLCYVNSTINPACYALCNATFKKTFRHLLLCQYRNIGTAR
Test: M4 cell-based functional assay, calcium mobilization, potentiation of ACh EC20
Details: for Emax at 30 µM: % ACh maximum at 30 μM; for pEC50: CHO-K1 hM4-Gqi5 cells, calcium flux, ACh EC20
Method in brief: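 CHO-K1 cells stably co-expressing human M4 and chimeric Gqi5, loaded with Fluo-4-AM, read by calcium fluorescence (ex 480/em 530 nm). Compound (10-point 1:3 series) added ~140 s before an EC20 ACh challenge, then EC80 ACh. Response expressed as fold over basal, normalized to maximal ACh response.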

Compound	Emax at 30 µM [%]	pEC50
[2H]C1([2H])Oc2ccc(OC3CCN(c4nc5nn(C)c(=O)n5c(C)c4C)CC3)cc2OC1([2H])[2H] [Compound A10, 7-(4-((2,3-dihydrobenzo[b][1,4]dioxin-6-yl-2,2,3,3-d4)oxy)piperidin-1-yl)-2,5,6-trimethyl-[1,2,4]triazolo[4,3-a]pyrimidin-3(2H)-one]	96	8.70
[2H]C1([2H])Oc2ccc(OC3CCN(c4nc5nn(C)c(=O)n5cc4C)CC3)cc2OC1([2H])[2H] [Compound A6, 7-(4-((2,3-dihydrobenzo[b][1,4]dioxin-6-yl-2,2,3,3-d4)oxy)piperidin-1-yl)-2,6-dimethyl-[1,2,4]triazolo[4,3-a]pyrimidin-3(2H)-one]	90	8.15
[2H]C1([2H])Oc2ccc(OC3CCN(c4nc5c(cc4C)C(=O)NC5)CC3)cc2OC1([2H])[2H] [Compound 3, 2-(4-((2,3-dihydrobenzo[b][1,4]dioxin-6-yl-2,2,3,3-d4)oxy)piperidin-1-yl)-3-methyl-6,7-dihydro-5H-pyrrolo[3,4-b]pyridin-5-one]	96	8.70
